{"source": "patent US7811352B2", "about": "“Fertilizer compositions and methods of using” (priority 2005, dated 2010)", "system": "fairway height, creeping bentgrass", "assay": "Color rating of fairway height creeping bentgrass after fertilization (Example 6)", "type": "in vivo", "details": "about two weeks after application", "procedure": "In this Example, the efficacy of fertilizers on fairway height, creeping bentgrass was examined. Fertilizer compositions according to several embodiments of the present disclosure were prepared and compared to the commercial fertilizer products, urea 46-0-0 (granular) fertilizer, Lebanon fertilizer 21-0-12 (granular, commercially available from Lebanon Seaboard Corporation, Lebanon, Pa.) and Milorganite 6-2-0 (granular, commercially available from Milorganite, Milwaukee, Wis.). The fertilizer compositions were applied to turf prior to winter dormancy at a rate equivalent to supplying about 1.0 pounds of nitrogen (N) per 1000 square feet. Each of the fertilizer compositions were applied at substantially equal rates of lbs of nitrogen (N) per 1000 square feet. Table 3 illustrates the response of fairway height, creeping bentgrass to fertilization using various exemplary fertilizers of the present invention, taken about two weeks after application of the fertilizer. The letters in the Color and Injury columns correspond to Duncan's Multiple Range Test. Numbers (means) in a column followed by the same letter are not statistically different at P=0.05.", "data": [{"smiles": "NC(N)=O", "note": "[Urea, urea, reference compound]", "values": [{"measurement": "Color 1-9 (9 = dark green)", "setting": "1.09 Lbs. product/1000 square feet", "value": 6.7}, {"measurement": "Color 1-9 (9 = dark green)", "setting": "2.17 Lbs. product/1000 square feet", "value": 7.0}, {"measurement": "Color 1-9 (9 = dark green)", "setting": "6.51 Lbs. product/1000 square feet", "value": 7.7}]}]}
